Source: patent US20250282799A1, “SUBSTITUTED PYRIDO[4,3-d]PYRIMIDINES AS KRAS MODULATORS” (Alterome Therapeutics, Inc., priority 2023, published 2025)
pIC50: −log10 of the molar value.

Molecular target: KRAS (G12D)/CRAF (Homo sapiens (Human), UniProt P01116, G12D)
Assay: TR-FRET biochemical KRAS:CRAF protein:protein interaction assay, KRAS (G12D)
Assay type: binding
Conditions: GMPPNP loaded Biotin-KRAS (G12D), FLAG CRAF RBD; read-out: TR-Fret_PPI KRAS (G12D)/CRAF IC50
Summary of the method: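 Compound (10-point 3-fold series, 1% DMSO final) preincubated 30 min at room temperature with 20 nM biotin-KRAS mutant loaded with GMPPNP, in Hepes pH7.3 buffer with 5 mM MgCl2 and 10 uM GMP-PNP. Then 100 nM FLAG-CRAF RBD for 150 min, 1 nM Tb-anti-FLAG/5 nM SA-XL665 for 90 min; IC50 from normalized 665/620 ratio, 4-parameter fit.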

KRAS (G12D)/CRAF, sequence (P01116-2 other isoform, or with tags, fused parts or gaps G12D): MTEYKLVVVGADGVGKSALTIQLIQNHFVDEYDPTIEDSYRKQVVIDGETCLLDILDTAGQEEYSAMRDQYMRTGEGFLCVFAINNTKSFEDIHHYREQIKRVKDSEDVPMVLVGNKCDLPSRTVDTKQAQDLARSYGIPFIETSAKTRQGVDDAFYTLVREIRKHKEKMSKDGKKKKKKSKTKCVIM

Row | SMILES | pIC50
1 | [2H]C([2H])(Oc1nc(N2CCCC[C@H]3[C@H](F)[C@H]32)c2cnc(-c3cc(N)cc4cc(F)c(F)c(C#C)c34)c(F)c2n1)[C@@]12CCCN1C[C@H](F)C2 [Example 16, 5-Ethynyl-6,7-difluoro-4-(8-fluoro-4-((1S,7R,8S)-8-fluoro-2-azabicyclo[5.1.0]octan-2-yl)-2-(((2R,7aS)-2-fluorotetrahydro-1H-pyrrolizin-7a(5H)-yl)methoxy-d2)pyrido[4,3-d]pyrimidin-7-yl)naphthalen-2-amine] | 8.00
2 | [2H]C([2H])(Oc1nc(N2CCOC[C@H]3[C@H](F)[C@H]32)c2cnc(-c3cc(N)cc4cc(F)c(F)c(C#C)c34)c(F)c2n1)[C@@]12CCCN1C[C@H](F)C2 [Example 28, 5-Ethynyl-6,7-difluoro-4-(8-fluoro-4-((1S,7S,8S)-8-fluoro-5-oxa-2-azabicyclo[5.1.0]octan-2-yl)-2-(((2R,7aS)-2-fluorotetrahydro-1H-pyrrolizin-7a(5H)-yl)methoxy-d2)pyrido[4,3-d]pyrimidin-7-yl)naphthalen-2-amine] | 7.94
3 | [2H]C([2H])(Oc1nc(N2CCCC[C@H]3[C@H](F)[C@H]32)c2cnc(-c3cc(N)cc4ccc(F)c(C#C)c34)c(F)c2n1)[C@@]12CCCN1C[C@H](F)C2 [Example 82, 5-Ethynyl-6-fluoro-4-(8-fluoro-4-((1S,7R,8S)-8-fluoro-2-azabicyclo[5.1.0]octan-2-yl)-2-(((2R,7aS)-2-fluorotetrahydro-1H-pyrrolizin-7a(5H)-yl)methoxy-d2)pyrido[4,3-d]pyrimidin-7-yl)naphthalen-2-amine] | 8.09
4 | [2H]C([2H])(Oc1nc(N2CCOC[C@H]3[C@H](F)[C@H]32)c2cnc(-c3cc(N)cc4ccc(F)c(C#C)c34)c(F)c2n1)[C@@]12CCCN1C[C@H](F)C2 [Example 87, 5-Ethynyl-6-fluoro-4-(8-fluoro-4-((1S,7S,8S)-8-fluoro-5-oxa-2-azabicyclo[5.1.0]octan-2-yl)-2-(((2R,7aS)-2-fluorotetrahydro-1H-pyrrolizin-7a(5H)-yl)methoxy-d2)pyrido[4,3-d]pyrimidin-7-yl)naphthalen-2-amine] | 8.00
